Laboratory results taken from patent US12364682B2, “Use of tegaserod in preparation of anti-tumor drug” (Qingdao Haiji Biomedicine Co., Ltd., priority 2019, dated 2025).
Where a name gives a salt, the structure may show the parent alone. Blank lines part the entries; values can stand above or below the compound they belong to.

Legend:
STAT3 = experiment: STAT3-dependent luciferase reporter gene test; format: cell-based; conditions: Homo sapiens; SKA cells (A549 with STAT3-luciferase reporter gene), 24 h; read-out: IC50 of inhibitory effect on STAT3 (luciferase reporter)
Protocol: HeLa and SKA cells (A549 cells constructed with the STAT3-luciferase reporter gene) were cultivated in a DMEM medium, and DU145, A549, DLD1, H460, and MC38 were cultivated in an RPMI 1640 medium. For routine cultivation, 10% fetal bovine serum (FBS), 100 IU/ml penicillin, and […] streptomycin were added to a medium. All cells were cultivated at 37° C. and 5% CO2.
SKA cells were inoculated into a white 96-well plate at a density of 1×10^4/well, and cultivated overnight at 37° C. and 5% CO2. A drug to be tested was added at a concentration to be tested to act on the cells for 24 h. The luciferase activity was determined on a SpectraMax®L microplate reader using a luciferase kit (purchased from Promega®).

STAT3 Tyr705 [1] = experiment: Western blotting of constitutive STAT3 activation in DU145 cells; format: cell-based, human; conditions: constitutively activated STAT3, 2 h
Protocol: (§1) The cells were harvested and lysed with an RIPA buffer, a resulting lysate was subjected to sodium dodecyl sulfate-polyacrylamide gel electrophoresis (SDS-PAGE), and a resulting protein was transferred to a nitrocellulose (NC) membrane (purchased from GE Healthcare®). A primary antibody was added to bind the protein to be tested on the membrane, then a horseradish peroxidase (HRP)-conjugated secondary antibody (purchased from Absin) was added for incubation, and finally a formed immunocomplex was detected with an Immobilon™ Western chemiluminescent HRP substrate (Millipore®) and photographed with a Tanon® 5200 imaging system.
(§2) Different concentrations of Tegaserod were added to normally-cultured cells to act on the cells for 2 h, a cell protein lysate was collected for western blotting assay, and an activation status of STAT3 was observed through a phosphorylation status at an STAT3 Tyr705 site.

STAT3 Tyr705 [2] = experiment: Western blotting of constitutive STAT3 activation in A549 cells; format: cell-based; conditions: constitutively activated STAT3, 2 h
Protocol: as §1, §2

STAT3 (Y705) = experiment: Western blotting of IL-6-induced STAT3 activation in HeLa cells; format: cell-based; conditions: 2 h drug, then 5 ng/ml IL-6 for 10 min
Protocol: as §1
IL-6 was the main cytokine to activate STAT3 signaling. Hela cells were first treated with different concentrations of Tegaserod for 2 h, then stimulated with 5 ng/ml IL-6 for 10 min before harvested. Total protein was extracted, and the phosphorylation of STAT3 (Y705) was detected through western blotting.

JAK1 Tyr1022/1023 = molecular target: T1, JAK1 Tyr1022/1023 (Homo sapiens, UniProt P23458); experiment: Western blotting of JAK1 phosphorylation in DU145 cells; format: cell-based
T1 construct: endogenous in cells; host or cells: DU145
Protocol: as §1
(§3) STAT3 is usually JAK-kinase-phosphorylated and activated by the autophosphorylated JAK kinase upstream thereof.

JAK2 Tyr1007/1008 = molecular target: T2, JAK2 Tyr1007/1008 (Homo sapiens, UniProt O60674); experiment: Western blotting of JAK2 phosphorylation in DU145 cells; format: cell-based; conditions: 7.5 μM, 2 h
T2 construct: endogenous in cells; host or cells: DU145
Protocol: as §1, §3

TYK2 Tyr1054/1055 = molecular target: T3, TYK2 Tyr1054/1055 (Homo sapiens, UniProt P29597); experiment: Western blotting of TYK2 phosphorylation in DU145 cells; format: cell-based; conditions: high concentration 15 μM, 2 h
T3 construct: endogenous in cells; host or cells: DU145
Protocol: as §1, §3

[3] = test system: prostate cancer DU145 cells; experiment: Cell viability assay, DU145; format: cell-based; conditions: Homo sapiens, DU-145, 72 h, read-out: growth inhibition IC50
Protocol: (§4) Cells were inoculated into a 96-well plate at a density of 3,000 cells/well. After the cells were cultivated for 18 h, different concentrations of a drug to be tested were added to act on the cells. 72 h after the drug to be tested was added, 10 μl of resazurin (1 mg/ml) was added to each well, the plate was further incubated for 3 h, and then a fluorescence value at 595 nm (excitation wavelength at 544 nm) was determined on a SpectraMax®i3 multifunctional microplate reader (purchased from Molecular Device®)
(§5) After cells were treated with Tegaserod for 72 h, the cell viability was determined to reflect the inhibitory effect of the drug on cell growth.

lung cancer H460 cells = experiment: Cell viability assay, H460; format: cell-based; conditions: Homo sapiens, NCI-H460, 72 h, read-out: growth inhibition IC50
Protocol: as §4, §5

lung cancer A549 cells = experiment: Cell viability assay, A549; format: cell-based; conditions: Homo sapiens, 72 h, read-out: growth inhibition IC50
Protocol: as §4, §5

DLD1 colon cancer cells = experiment: Cell viability assay, DLD1; format: cell-based; conditions: Homo sapiens, DLD-1, 72 h, read-out: growth inhibition IC50
Protocol: as §4, §5

[4] = test system: NSCLC A549 transplanted tumors; experiment: A549 transplanted tumor nude mouse model; format: in vivo, nude mice
Protocol: (§6) Female NRMI nu/nu athymic nude mice (SPF grade, 6 weeks old, with a weight of 17 g to 20 g) were purchased from GemPharmatech®, and raised in a constant-temperature and constant-humidity environment according to standard requirements, where a 12 h light-dark cycle was adopted. The animal experiment was approved by the Laboratory Animal Committee of Ocean University of China and complied with the “Guide for Care and Use of Laboratory Animals” published by the National Institutes of Health (NIH Publication No. 85-23, revised in 1996).
(§7) Nude mice were subcutaneously injected with an A549 cell suspension (female mice) or a DU145 matrigel cell suspension (male mice). After palpable solid tumors were formed, constructed model mice were randomly divided into groups, each with 7 to 10 mice. Administration treatment was conducted according to the experimental grouping. Throughout the experiment, a body weight was measured regularly. A tumor volume was calculated as follows: tumor volume=0.5×length×width×width.

[5] = test system: prostate cancer DU145 transplanted tumors; experiment: DU145 transplanted tumor nude mouse model; format: in vivo, nude mice
Protocol: as §6, §7

[6] = test system: CRC MC38 transplanted tumors; experiment: CRC MC38 syngeneic tumor model; format: in vivo; conditions: immune-sound mice
Description: (§8) Some parts in nude mice had acquired immune cell deficiency and an imperfect immune system, and thus the anti-tumor effect and immunomodulatory effect of Tegaserod were further tested in immune-sound mice.

[7] = Body weight and toxicity observation in tumor-bearing mice; format: in vivo
Protocol: as §7

[8] = test system: immune cells in peripheral blood; experiment: Blood cell analysis of peripheral blood; format: in vivo; conditions: tumor-bearing mice, after administration
Protocol: After the tumor-bearing mice were sacrificed by CO2, blood was collected from the heart and placed into an EDTA anticoagulation tube, and the blood cell component test was conducted using an IDEXX ProCyte Dx automatic blood cell analyzer.
In order to verify this hypothesis, the composition change of immune cells in peripheral blood after the administration of Tegaserod was first detected.

[9] = test system: immune cells in DU145 transplanted tumors; experiment: FCM analysis of immune cells in DU145 transplanted tumors; format: in vivo; conditions: DU145 transplanted tumors in nude mice
Protocol: (§9) At the end of the experiment, the mice were sacrificed by C02, a proper amount of tumor tissue was collected and placed in a dissociation tube with a mouse tumor dissociation reagent (MC38 transplanted tumor) or human tumor dissociation reagent (DU145 transplanted tumor), and a tissue dissociator (Miltenyi) was used for dissociation. Separated single cells were subjected to RBC lysis and dead cell staining, obtained cells were incubated with a blocking solution at 4° C., a corresponding antibody was added, and analysis was conducted on a FACSAriaIII cell sorter.
Furthermore, the composition and proportion of immune cells in DU145 transplanted tumors in nude mice were tested through FCM.

[10] = test system: mouse stromal cells of DU145 transplanted tumors; experiment: Transcriptome sequencing of DU145 transplanted tumors; format: in vivo, nude mice; conditions: mouse-derived cells in DU145 transplanted tumors, mRNA sequencing
Protocol: An appropriate amount of tumor tissue was collected and quick-frozen with liquid nitrogen, and eukaryotic mRNA sequencing was conducted by Majorbio. Based on the Illumina® Novaseq 6000™ sequencing platform, all mRNAs transcribed from specific eukaryotic tissues or cells in a specified period were sequenced. In the sequencing experiment, the Illumina Truseq™ RNA sample prep kit method was used to build a library. Raw data were used for quality control, sequence alignment, transcript assembly, function annotation, and expression analysis.
In order to further explore the immunomodulatory effect of Tegaserod in an anti-tumor process, the transcriptome sequencing technology was used to conduct mRNA sequencing for DU145 transplanted tumors in nude mice, and sequencing results were aligned to the mouse reference genome to obtain the overall mRNA expression of mouse-derived cells in DU145 transplanted tumors in nude mice.

[11] = test system: immune cells in MC38 transplanted tumors; experiment: FCM analysis of immune cells in MC38 tumors; format: in vivo, mice
Protocol: as §9, §8

phosphorylated STAT3 = experiment: Immunohistochemistry of phosphorylated STAT3 in DU145 transplanted tumors; format: in vivo, nude mice; conditions: oral administration
Protocol: (§10) Paraffin sections were deparaffinized with xylene, washed with ethanol of various grades, subjected to antigen retrieval, blocked with a blocking solution in a 37° C. incubator, then treated with a primary antibody and a secondary antibody, stained with a DAB staining solution, treated with hematoxylin, a differentiation solution, an ammonia solution, ethanol of various grades, and xylene, and sealed with a neutral resin.
In addition, the human prostate cancer cell line DU145 with constitutive STAT3 activation was selected, and the effect of Tegaserod on the growth of transplanted tumors of the human prostate cancer cell line in nude mice was also tested.

[12] = test system: cell proliferation marker Ki67; experiment: Immunohistochemistry of Ki67 in DU145 transplanted tumors; format: in vivo, nude mice; conditions: oral 1.25 mg/kg once every two days
Protocol: as §10

T1 sequence (P23458 whole entry): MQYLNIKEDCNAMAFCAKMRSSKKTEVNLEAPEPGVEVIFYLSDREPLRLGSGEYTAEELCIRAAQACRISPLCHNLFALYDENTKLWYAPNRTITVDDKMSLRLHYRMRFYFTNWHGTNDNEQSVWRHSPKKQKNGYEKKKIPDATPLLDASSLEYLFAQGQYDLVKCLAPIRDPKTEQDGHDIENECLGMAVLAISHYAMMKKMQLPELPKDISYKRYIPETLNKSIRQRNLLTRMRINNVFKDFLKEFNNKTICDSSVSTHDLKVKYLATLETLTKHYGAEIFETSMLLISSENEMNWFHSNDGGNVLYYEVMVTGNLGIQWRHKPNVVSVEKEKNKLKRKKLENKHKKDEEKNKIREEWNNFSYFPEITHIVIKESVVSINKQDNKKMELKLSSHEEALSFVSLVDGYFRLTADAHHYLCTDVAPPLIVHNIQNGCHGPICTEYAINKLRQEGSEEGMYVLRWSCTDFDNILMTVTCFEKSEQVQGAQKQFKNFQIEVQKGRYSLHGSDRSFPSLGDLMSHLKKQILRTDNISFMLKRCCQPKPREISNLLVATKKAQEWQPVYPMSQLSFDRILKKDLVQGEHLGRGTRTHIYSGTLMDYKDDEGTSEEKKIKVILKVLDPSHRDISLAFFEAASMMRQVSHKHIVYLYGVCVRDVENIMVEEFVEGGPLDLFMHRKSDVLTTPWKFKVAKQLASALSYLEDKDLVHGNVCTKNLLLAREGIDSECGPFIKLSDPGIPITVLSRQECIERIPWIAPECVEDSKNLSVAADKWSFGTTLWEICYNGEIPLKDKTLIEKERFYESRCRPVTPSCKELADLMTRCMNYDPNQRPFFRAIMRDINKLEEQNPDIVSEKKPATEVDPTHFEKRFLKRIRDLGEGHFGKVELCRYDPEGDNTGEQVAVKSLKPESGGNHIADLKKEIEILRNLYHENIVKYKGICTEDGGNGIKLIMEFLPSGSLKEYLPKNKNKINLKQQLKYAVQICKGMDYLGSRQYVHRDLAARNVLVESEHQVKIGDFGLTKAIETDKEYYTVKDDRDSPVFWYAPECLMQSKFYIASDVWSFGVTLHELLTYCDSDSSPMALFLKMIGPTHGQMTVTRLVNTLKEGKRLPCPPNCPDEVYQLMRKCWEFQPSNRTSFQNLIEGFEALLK
T3 sequence (P29597 whole entry): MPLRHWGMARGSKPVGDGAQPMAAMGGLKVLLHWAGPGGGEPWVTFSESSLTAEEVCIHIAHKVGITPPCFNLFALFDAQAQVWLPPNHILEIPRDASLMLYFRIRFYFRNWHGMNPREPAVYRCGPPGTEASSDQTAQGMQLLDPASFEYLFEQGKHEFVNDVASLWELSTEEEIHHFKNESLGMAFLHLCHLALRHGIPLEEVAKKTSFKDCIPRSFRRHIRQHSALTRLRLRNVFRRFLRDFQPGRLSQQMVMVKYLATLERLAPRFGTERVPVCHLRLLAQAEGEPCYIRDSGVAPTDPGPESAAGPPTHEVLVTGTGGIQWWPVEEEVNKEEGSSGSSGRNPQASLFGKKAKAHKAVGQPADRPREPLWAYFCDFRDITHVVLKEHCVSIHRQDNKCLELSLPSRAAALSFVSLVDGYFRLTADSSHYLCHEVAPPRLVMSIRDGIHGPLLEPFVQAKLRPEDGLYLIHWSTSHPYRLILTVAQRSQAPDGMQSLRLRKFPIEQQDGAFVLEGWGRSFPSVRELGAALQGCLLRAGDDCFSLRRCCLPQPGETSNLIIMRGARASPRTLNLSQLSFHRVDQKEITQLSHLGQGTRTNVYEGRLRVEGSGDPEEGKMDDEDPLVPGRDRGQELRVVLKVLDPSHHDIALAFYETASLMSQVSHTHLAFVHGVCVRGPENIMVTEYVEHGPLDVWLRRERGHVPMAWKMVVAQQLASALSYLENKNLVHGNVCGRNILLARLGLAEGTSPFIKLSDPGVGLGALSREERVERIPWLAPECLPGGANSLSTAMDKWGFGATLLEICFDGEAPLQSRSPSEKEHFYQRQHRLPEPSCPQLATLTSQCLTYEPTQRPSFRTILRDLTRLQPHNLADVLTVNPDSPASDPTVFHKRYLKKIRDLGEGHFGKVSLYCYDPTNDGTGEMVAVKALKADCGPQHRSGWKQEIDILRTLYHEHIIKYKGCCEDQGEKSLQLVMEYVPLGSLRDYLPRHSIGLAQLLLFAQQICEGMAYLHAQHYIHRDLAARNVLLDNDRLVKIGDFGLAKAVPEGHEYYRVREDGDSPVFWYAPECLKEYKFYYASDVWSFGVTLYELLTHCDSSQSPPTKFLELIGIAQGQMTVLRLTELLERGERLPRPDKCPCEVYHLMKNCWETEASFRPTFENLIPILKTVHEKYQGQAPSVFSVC
T2 sequence (O60674 whole entry): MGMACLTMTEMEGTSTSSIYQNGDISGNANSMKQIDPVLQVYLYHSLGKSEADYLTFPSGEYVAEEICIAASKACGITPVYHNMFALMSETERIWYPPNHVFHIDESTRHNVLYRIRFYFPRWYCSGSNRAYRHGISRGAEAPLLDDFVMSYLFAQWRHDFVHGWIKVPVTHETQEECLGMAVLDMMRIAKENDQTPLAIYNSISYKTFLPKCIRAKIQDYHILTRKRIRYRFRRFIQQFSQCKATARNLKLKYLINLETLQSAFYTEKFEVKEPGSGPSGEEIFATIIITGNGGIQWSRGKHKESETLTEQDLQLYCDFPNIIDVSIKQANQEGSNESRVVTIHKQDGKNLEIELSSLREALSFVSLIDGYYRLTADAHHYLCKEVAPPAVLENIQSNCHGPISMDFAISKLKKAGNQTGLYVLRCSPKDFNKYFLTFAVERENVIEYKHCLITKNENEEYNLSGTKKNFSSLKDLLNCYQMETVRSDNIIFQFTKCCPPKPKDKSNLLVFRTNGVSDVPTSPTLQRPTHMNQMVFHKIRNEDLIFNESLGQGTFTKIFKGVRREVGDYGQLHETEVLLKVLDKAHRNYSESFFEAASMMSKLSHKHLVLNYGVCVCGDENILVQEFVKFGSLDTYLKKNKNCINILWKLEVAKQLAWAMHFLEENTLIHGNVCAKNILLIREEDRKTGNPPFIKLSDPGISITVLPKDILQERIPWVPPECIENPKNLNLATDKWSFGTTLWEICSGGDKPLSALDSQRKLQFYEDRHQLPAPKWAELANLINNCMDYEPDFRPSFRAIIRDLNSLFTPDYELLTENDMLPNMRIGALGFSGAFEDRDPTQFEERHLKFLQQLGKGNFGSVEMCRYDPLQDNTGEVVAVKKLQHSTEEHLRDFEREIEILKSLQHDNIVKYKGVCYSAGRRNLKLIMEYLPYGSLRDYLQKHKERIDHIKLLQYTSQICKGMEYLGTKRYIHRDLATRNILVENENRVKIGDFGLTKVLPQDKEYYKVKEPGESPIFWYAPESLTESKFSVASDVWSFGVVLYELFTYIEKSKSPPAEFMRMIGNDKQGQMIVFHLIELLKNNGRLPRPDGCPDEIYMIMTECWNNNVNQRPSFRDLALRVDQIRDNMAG

- IC50 (STAT3): 5.06 µM
Structure (SMILES): [H]/N=C(/NCCCCC)N/N=C/c1c[nH]c2ccc(OC)cc12 [Tegaserod maleate]

Structure (SMILES): CCCCCNC(=N)N/N=C/c1c[nH]c2ccc(OC)cc12 [Tegaserod, 2-[(5-methoxy-1H-indol-3-yl)methylene]-N-pentylcarbazide]
- inhibition of STAT3 activation (Tyr705 phosphorylation) (STAT3 Tyr705 [1]): could inhibit the activation of STAT3 in a dosage-dependent manner
- inhibition of STAT3 activation (Tyr705 phosphorylation) (STAT3 Tyr705 [2]): could inhibit the activation of STAT3 in a dosage-dependent manner
- inhibition of IL-6-induced STAT3 activation (Y705 phosphorylation) (STAT3 (Y705)): inhibited the activation of STAT3 induced by IL-6 in a dosage-dependent manner
- inhibition of phosphorylation at JAK1 Tyr1022/1023 (JAK1 Tyr1022/1023; 7.5 μM, 2 h): could inhibit the phosphorylation
- selectivity within the JAK kinase family (JAK1 Tyr1022/1023; JAK1 and JAK2 versus TYK2): higher affinity to JAK1 and JAK2 than to TYK2
- inhibition of phosphorylation at JAK2 Tyr1007/1008 (JAK2 Tyr1007/1008): could inhibit the phosphorylation
- inhibition of phosphorylation at TYK2 Tyr1054/1055 (TYK2 Tyr1054/1055): could also inhibit the phosphorylation
- IC50 [3]: 2.5 µM
- IC50 (lung cancer H460 cells): 3.1 µM
- IC50 (lung cancer A549 cells): 5.7 µM
- IC50 (DLD1 colon cancer cells): 8.7 µM
- anti-tumor effect relative to gefitinib ([4]; 5 mg/kg i.p. versus 100 mg/kg gefitinib p.o., A549 nude mice): comparable to that of 100 mg/kg gefitinib (p.o.)
- growth of A549 transplanted tumors ([4]; 5 mg/kg i.p., nude mice, versus control group): could effectively inhibit the growth of A549 tumor cells
- dependence of tumor inhibition rate on dosage ([4]; A549 transplanted tumor nude mouse model): no dependence on a Tegaserod dosage
- growth of A549 transplanted tumors (tumor weight and tumor volume) ([4]; oral administration, nude mice): could inhibit the growth of A549 transplanted tumors in nude mice
- tumor inhibition ability at reduced administration frequency ([5]; DU145 nude mice, oral, once every two days): exhibited a stronger tumor inhibition ability
- dependence of tumor inhibition rate on dosage ([5]; DU145 transplanted tumor nude mouse model): no dependence on a Tegaserod dosage
- growth of DU145 transplanted tumors ([5]; oral administration, nude mice): could effectively inhibit the growth of DU145 transplanted tumors in nude mice
- growth of CRC MC38 transplanted tumors [6]: could effectively inhibit the growth of CRC MC38 transplanted tumors
- organ damage after anatomy ([7]; A549 nude mouse model, i.p. administration, experimental endpoint): no obvious organ damage was observed
- body weight ([7]; A549 nude mouse model, i.p. administration, throughout the experiment): did not change significantly
- body weight ([7]; A549 nude mouse model, oral administration): did not lose weight
- drug toxicity (body weight) ([7]; DU145 nude mouse model, low-dosage, low-frequency oral administration): no obvious drug toxicity
- drug toxicity ([7]; DU145 nude mouse model, oral administration): without obvious drug toxicity
- drug toxicity ([7]; MC38 model, immune-sound mice): without obvious drug toxicity
- total WBC count, neutrophils, lymphocytes, and platelets in the peripheral blood [8]: could stimulate the increase
- proportion of immune cells (CD45+; CD11b+Ly6G+, CD11b+Ly6C+, CD335+) in tumors [9]: could increase the proportion of immune cells (CD45+) in tumors
- genes of cytokine-cytokine receptor interaction and antigen processing and presentation (KEGG analysis) [10]: significantly up-regulated
- infiltration of immune cells (CD45+) inside tumors [11]: promoted the infiltration of immune cells (CD45+) inside tumors
- phosphorylation level of STAT3 in tumors (immunohistochemistry) (phosphorylated STAT3): could effectively inhibit the phosphorylation level of STAT3
- tumor proliferation ability (Ki67 immunohistochemistry) [12]: decreased proliferation ability

Structure (SMILES): COc1cc2ncnc(Nc3ccc(F)c(Cl)c3)c2cc1OCCCN1CCOCC1 [gefitinib]
- total WBC count, neutrophils, lymphocytes, and platelets in the peripheral blood [8]: stimulate the increase
- proportion of immune cells (CD45+; CD11b+Ly6G+, CD11b+Ly6C+, CD335+) in tumors [9]: also exhibited a similar immunomodulatory effect
